According to ChEMBL document CHEMBL1143637, “Solid-phase binding assays of peptides using EGFP-Src SH2 domain fusion protein and biotinylated Src SH2 domain” (Bioorg Med Chem Lett, 2005):

Target: Proto-oncogene tyrosine-protein kinase Src (Homo sapiens, UniProt P12931)
Assay: Inhibitory concentration against Src protein tyrosine kinase SH2 domain

Chain of Proto-oncogene tyrosine-protein kinase Src (P12931 2-536 limits assumed): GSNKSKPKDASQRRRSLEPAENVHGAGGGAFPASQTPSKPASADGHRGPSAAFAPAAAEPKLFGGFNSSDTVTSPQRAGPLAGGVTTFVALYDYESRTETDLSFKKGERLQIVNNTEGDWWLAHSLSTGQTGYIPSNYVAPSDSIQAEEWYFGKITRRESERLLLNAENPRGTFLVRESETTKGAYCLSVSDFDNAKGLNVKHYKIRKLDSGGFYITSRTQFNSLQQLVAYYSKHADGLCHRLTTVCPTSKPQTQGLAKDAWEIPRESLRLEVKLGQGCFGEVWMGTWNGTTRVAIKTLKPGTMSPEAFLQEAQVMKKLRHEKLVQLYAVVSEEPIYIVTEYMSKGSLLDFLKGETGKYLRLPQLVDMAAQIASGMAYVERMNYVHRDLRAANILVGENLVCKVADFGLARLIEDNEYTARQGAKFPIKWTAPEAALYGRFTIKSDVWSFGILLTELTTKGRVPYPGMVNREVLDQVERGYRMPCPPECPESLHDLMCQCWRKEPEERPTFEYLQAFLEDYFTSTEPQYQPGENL

Q: With `CC[C@H](C)[C@H](NC(=O)[C@H](CCC(=O)O)NC(=O)[C@H](CCC(=O)O)NC(=O)[C@@H](N)Cc1ccc(O)cc1)C(=O)O` as the compound, how does the IC50 read?
A: > 100 µM

Q: With `CC[C@H](C)[C@H](N)C(=O)N[C@@H](CCC(=O)O)C(=O)N[C@@H](CCC(=O)O)C(=O)N[C@@H](Cc1ccc(O)cc1)C(=O)O` as the compound, how does the IC50 read?
A: > 100 µM

Q: For `CC[C@H](C)[C@H](NC(=O)[C@H](CCC(=O)O)NC(=O)[C@H](CCC(=O)O)NC(=O)[C@@H](N)Cc1ccccc1)C(=O)O`, which IC50 is on record?
A: > 100 µM

Q: Which IC50 does the source give for `CC[C@H](C)[C@H](N)C(=O)N[C@@H](CCC(=O)O)C(=O)N[C@@H](CCC(=O)O)C(=O)N[C@@H](Cc1ccccc1)C(=O)O` here?
A: > 100 µM

Q: How did the IC50 turn out when `CC[C@H](C)[C@H](N)C(=O)N[C@@H](CCC(=O)O)C(=O)N[C@@H](CCC(=O)O)C(=O)N[C@@H](Cc1ccc(OP(=O)(O)O)cc1)C(=O)O` was run?
A: > 100 µM
